Data set [1] can be described thus: Monitoring of systemic toxicity in the 4T1 in vivo study (body mass, behavior, fur, food intake). On the set-up: species or system BALB/c mice. The following applies: 5 and 20 mg/kg i.p. As for the experimental part:
On day 6, the mice were assigned to the study groups using a stratified randomization approach, ensuring that the mean tumor volumes were as similar as possible across all groups. The control group was treated with 400 µL of vehicle solution, the low dose compound 19 group with 5 mg/kg in 400 µL of vehicle, and the high dose group with […] in 400 µL of vehicle. The vehicle was 4% (v/v) DMSO in PBS, and the administration route was intraperitoneal (i.p.). The animals were treated daily on days 6–10 (starting from the day when tumors became palpable), 13–17 and day 20. Animals were visually examined daily, and urine samples were collected on the first and last day of treatment and analyzed by Multistix urine test stripes (Siemens Healthineers, Erlangen, Germany). On day 21 of the experiment, the mice were sacrificed using cervical dislocation. Following the sacrifice, the tumor diameters were measured using a caliper. The tumor volume (V) was then calculated using the formula V = L*W^2*0.52[36], where L represents the longest diameter and W the shortest diameter of the tumor.

For a further data set, the system named is 4T1. The experiment in a line: Pan-caspase activation, ApoStat staining, flow cytometry. It counts as cell-based, mouse. The conditions noted are these: 4T1, IC50 for 72 h. On the set-up: key: ↑: induction; ↓: inhibition; ↔: no effect. As for the experimental part:
Cells were seeded in 6-well plates and incubated for 24 h under standard culture conditions. […] For the analyses of pan-caspase activation, the cell suspension was centrifuged for 3 min at 800 rpm, and the cell pellet was stained with 100 µL of ApoStat working solution (1 µL of ApoStat and 5% (v/v) FCS in 100 µL of PBS). Cells were incubated for 30 min under standard culture conditions. The cell suspension was centrifuged for 3 min at 800 rpm, and the cell pellet was washed with 1 mL of fresh PBS. Finally, all samples were analyzed by using flow cytometry (FACSAria III, BD Biosciences, New Jersey, USA).

The subject of data set [2] is HCC1937. The data set is described as follows: ROS production, DHR staining, flow cytometry. The format is cell-based, human. On the set-up: key: ↑: induction; ↓: inhibition; ↔: no effect. The following applies: HCC1937, IC50 for 72 h. As to the method: (§1) The cells were stained with CFSE (1 µM) in PBS containing 0.1% (v/v) FCS for 10 min. Afterwards, cells were washed with PBS, and then seeded with growth medium in 6-well plates. The plates were incubated for 24 h under standard culture conditions. […] Subsequently, the cells were detached using 0.5 mL of 0.05% (v/v) Trypsin–EDTA for 3 min at 37 °C. Then trypsin was deactivated by the addition of FCS-containing growth medium. The cell suspensions were collected, centrifuged for 3 min at 800 rpm, and the cell pellets were resuspended in fresh PBS. Finally, the samples were analyzed by using flow cytometry. For ROS production analyses, the procedure was performed exactly as described above for the cell division experiments, except that the CFSE staining solution was replaced by DHR staining solution resulting in 1 µM of DHR in PBS containing 0.1% (v/v) FCS[34],[35].
(In flow cytometry, cells or beads pass a laser one at a time.)

The test system of data set [3] is MCF-7. The data set is described as follows: ROS production, DHR staining, flow cytometry. The following applies: MCF-7, IC50 for 72 h. On the set-up: key: ↑: induction; ↓: inhibition; ↔: no effect. The format is cell-based, human. As to the method:
as §1

The test system of data set [4] is MDA-MB-468. The data set is described as follows: ROS production, DHR staining, flow cytometry. The format is cell-based, human. On the set-up: key: ↑: induction; ↓: inhibition; ↔: no effect. The conditions noted are these: MDA-MB-468, IC50 for 72 h. As to the method:
as §1

The test system of data set [5] is BT-474. The experiment in a line: ROS production, DHR staining, flow cytometry. It counts as cell-based, human. On the set-up: key: ↑: induction; ↓: inhibition; ↔: no effect. The following applies: BT-474, IC50 for 72 h. As for the experimental part:
as §1

The subject of data set [6] is HCC1937. The experiment in a line: Autophagy induction, acridine orange staining, flow cytometry. It counts as cell-based, human. On the set-up: key: ↑: induction; ↓: inhibition; ↔: no effect. The conditions noted are these: HCC1937, IC50 for 72 h. As to the method: (§2) Cells were seeded in 6-well plates and incubated for 24 h under standard culture conditions. […] For the analyses of autophagy induction, the cell suspension was centrifuged for 3 min at 800 rpm, and the cell pellet was stained with 1 mL of AO working solution (1 µg/mL of AO in growth medium). Cells were incubated for 15 min under standard culture conditions. The cell suspension was centrifuged for 3 min at 800 rpm, and the cell pellet was washed with 1 mL of fresh PBS. Finally, all samples were analyzed by using flow cytometry (FACSAria III, BD Biosciences, New Jersey, USA).

The subject of data set [7] is MCF-7. Described as above. The format is cell-based, human. On the set-up: key: ↑: induction; ↓: inhibition; ↔: no effect. The conditions noted are these: MCF-7, IC50 for 72 h. As to the method: as §2
The test system of data set [8] is MDA-MB-468. The description is as above. The following applies: MDA-MB-468, IC50 for 72 h. The format is cell-based, human. On the set-up: key: ↑: induction; ↓: inhibition; ↔: no effect. As to the method:
as §2

Data set [9] relates to BT-474. Described as above. It counts as cell-based, human. On the set-up: key: ↑: induction; ↓: inhibition; ↔: no effect. The conditions noted are these: BT-474, IC50 for 72 h. As for the experimental part:
as §2

Data set [10] concerns HCC1937. The experiment in a line: Apoptosis analysis, AnnV/PI staining, flow cytometry. It counts as cell-based, human. The following applies: HCC1937, IC50 for 72 h; control cells 19%. As to the method:
(§3) Cells were seeded in 6-well plates and incubated for 24 h under standard culture conditions. […] For apoptosis analyses, the cell suspension was centrifuged for 3 min at 800 rpm, and the cell pellet was stained by using 100 µL of AnnV/PI working solution (5 µL of AnnV, 2 µL of PI in 100 µL of PBS) for 15 min at RT and protected from light. The staining was terminated by the addition of 900 µL of annexin binding buffer. Finally, all samples were analyzed by using flow cytometry (FACSAria III, BD Biosciences, New Jersey, USA).

Data set [11] deals with MCF-7. The description is as above. It counts as cell-based, human. The conditions noted are these: MCF-7, IC50 for 72 h. As to the method:
as §3

The test system of data set [12] is MDA-MB-468. The description is as above. It counts as cell-based, human. The following applies: MDA-MB-468, IC50 for 72 h. As for the experimental part:
as §3

Data set [13] deals with BT-474. Described as above. It counts as cell-based, human. The conditions noted are these: BT-474, IC50 for 72 h; control cells 20%. As for the experimental part: as §3

From publication PMC11568214, “The impact of 9-azaglycophymine and phenylguanidine derivatives on the proliferation of various breast cancer cell lines in vitro and in vivo” (Scientific Reports, 2024) come the findings set out here.

Regarding `O=c1[nH]c(Nc2ccc([N+](=O)[O-])cc2)nc2ccccc12` [Compound 19, 4′-nitro-9-aza-glycophymine], the “acute systemic toxicity (body mass, behavioral changes, fur color and loss, food intake)” value in data set [1] is recorded as “absence of acute systemic toxicity”. Besides, the Pan-caspases result in the data set on 4T1 is “↑”. Also, the ROS entry is “↓” in the data set on HCC1937 [2], “↔” in the data set on MCF-7 [3], “↔” in the data set on MDA-MB-468 [4] and “↓” in the data set with BT-474 [5]. The Autophagy result in the data set with HCC1937 [6], with MCF-7 [7], in the data set on MDA-MB-468 [8] and in the data set with BT-474 [9] was “↔” each time. Also, the “percentage of apoptotic cells” value in the data set with HCC1937 [10] was found to be 47%; in the data set on BT-474 [13], 51%. Moreover, the “induction of apoptotic cell death” value in the data set on MCF-7 [11] and in the data set with MDA-MB-468 [12] was “did neither activate caspases nor apoptotic cell death” in each case.
